Data from patent publication US20120136066A1, “Glomerulonephritis Treatment” (AVEXXIN AS, priority 2009, published 2012).

Legend:
IIA-sPLA2 = IIA-sPLA2 protein expression and secretion, Western blot of supernatants; type: cell-based, rat; settings: mesangial cells, IL-1β (1 nM), FIG. 2A
Description: (§1) Quiescent cells were stimulated with either DMEM (−), or IL-1β (1 nM) in the absence (−) or presence of AKH-217 (etOH), vehicle control. • (A) Supernatants were taken for protein precipitation and precipitated proteins were separated by SDS-PAGE and subjected to a Western blot analysis using a monoclonal antibody against rat sPLA2. […] Cells were taken for RNA extraction and subjected to quantitative PCR analysis of rat IIA-sPLA2 and 18 S RNA. ΔΔCt values were calculated and results are expressed as % of maximal IL-1β-stimulated response and are means±S.D. (n=3). • (C) Cells were transfected with the sPLA2 promoter construct plus a plasmid coding for the Renilla luciferase. After transfection, cells were stimulated for 24 h with vehicle (−), IL-1β (1 nM), or IL-1β plus 10 μM of AKH-217. sPLA2 promoter activity was calculated and results are expressed as relative luciferase units (RLU) and are means±S.D. (n=3).
(§2) It has been previously shown that the cytokine-induced PGE2 formation in mesangial cells involves both sPLA2 and cPLA2 activation (Pfeilschifter et al., 1993), we then investigated the effect of the inhibitors above on sPLA2 protein and mRNA expressions. […] This effect on sPLA2 mRNA expression was due to a reducing effect on gene transcription. This was shown by a luciferase reporter gene assay that reflected sPLA2 promoter activity.

[1] = system: rat renal mesangial cells; test: cytokine-stimulated NO formation in mesangial cells (Griess Reaction assay); type: cell-based; settings: IL-1β (1 nM), FIG. 3
Description: Quiescent cells were stimulated with either DMEM (−), IL-1β (1 nM; +), in the absence or presence of the indicated concentrations of AKH-217, AVX002, or AACOCF3. Supernatants were collected and taken for nitric oxide (NO) quantification by using a Griess Reaction assay. Data are expressed as μM of NO in the supernatant and are means±S.D. (n=3).
(§3) To see whether this effect is due to altered gene transcription of iNOS, luciferase reporter gene assays were performed to measure iNOS promoter activity. A 4.5 kb fragment of the rat iNOS promoter was kindly provided by Dr. K. F. Beck (pharmazentrum frankfurt).

iNOS = iNOS protein expression, Western blot; type: cell-based, rat; settings: mesangial cells, IL-1β (1 nM), FIG. 4A
Description: (§4) Quiescent cells were stimulated with either vehicle (DMEM), IL-1β (1 nM), in the absence (−) or presence of the indicated concentrations (in μM) of AVX001 and AVX002. EtOH, vehicle control.(A) Cells were taken for protein extraction and equal amount of protein were separated by SDS-PAGE and subjected to a Western blot analysis using a polyclonal antibody against iNOS at a dilution of 1:2000. Data are representative of at least 3 independent experiments giving similar results. (B). Cells were taken for RNA extraction and subjected to quantitative PCR analysis of rat iNOS and 18 S RNA. ΔΔCt values were calculated and results are expressed as % of maximal IL-1β response and are means±S.D (n=3). • (C) Cells were transfected with the rat iNOS promoter construct plus a plasmid coding for the Renilla luciferase. After transfection, cells were stimulated with vehicle (−), IL-1β (1 nM), or IL-1β plus 10 μM of AVX001. iNOS promoter activity was calculated and results are expressed as relative luciferase units (RLU) and are means±S.D. (n=3).
as §3

IIA-sPLA2 mRNA = IIA-sPLA2 mRNA expression, quantitative PCR; type: cell-based, rat; settings: mesangial cells, IL-1β (1 nM), FIG. 2B
Description: as §1, §2

rat iNOS promoter = test: iNOS promoter activity, luciferase reporter gene assay; type: cell-based; settings: IL-1β (1 nM), 10 μM compound, FIG. 4C
Description: as §4, §3

mesangial cells = test: [3H]thymidine incorporation in mesangial cells (proliferation); type: cell-based, rat; settings: 24 h; ATP 100 μM, insuline 100 ng/ml or IGF 50 ng/ml, FIGS. 5A and 5B
Description: Quiescent cells were stimulated for 24 h with vehicle (DMEM), or 100 μM of ATP in the absence (−) or presence of the indicated concentrations of AVX001 or AVX002, in the presence of [^3H]thymidine. • (B) Cells were stimulated for 24 h with insuline (100 ng/ml) or IGF (50 ng/ml) in the absence (−) or presence of 10 μM of AVX001 or AVX002, in the presence of [^3H]thymidine. Thymidine incorporated into DNA was determined and results are expressed as % of control and are means±S.D. (n=3). Glomerulonephritis is characterized in a first early phase by increased mesangial apoptosis which in a second phase is replaced by an opposite event, i.e. hyperproliferation of mesangial cells. Many previous studies have shown that quiescent mesangial cells in culture can re-enter the cell cycle when exposed to various growth factors, including PDGF, insulin, insulin-like growth factor (IGF), or extracellular nucleotides such as ATP and UTP. […] In the presence of either AKH217 or AVX002, agonist-stimulated [^3H]thymidine incorporation is reduced (FIGS. 5A and 5B). Similar data were also obtained when cells were stimulated with PDGF.

rat IIA-sPLA2 promoter = test: sPLA2 promoter activity, luciferase reporter gene assay; type: cell-based; settings: IL-1β (1 nM), 24 h, 10 μM compound, FIG. 2C
Description: as §1
as §2, with “activity. […]” for “activity.”

phospho-p65 (NFκB) = test: NFκB activation, Western blot of phospho-p65; type: cell-based, rat; settings: IL-1β (2 nM) 30 min, 10 μM compound pretreated 2 h, FIG. 6
Description: Quiescent cells were stimulated for 30 min with either vehicle (DMEM), or IL-1β (2 nM) in the absence (−) or presence (+) of AVX001 or AVX002 (10 μM, pretreated 2 h). Thereafter, cell lysates were separated by SDS-PAGE and subjected to a Western blot analysis using a polyclonal antibody against phospho-p65 (NFκB) (upper panel), HuR as a loading control (middle panel), and IκB (lower panel). Data in FIG. 6A show duplicates of one representative experiments. FIGS. 6B and C show the densitometric evaluation of NFκB and IκB bands.
NFκB activation was measured by Western blot analyses by detecting the amount of phospho-p65 which represents the active transcription factor subunit.

With CC/C=C\C/C=C\C/C=C\C/C=C\CC/C=C/CSCC(=O)C(F)(F)F [AKH-217] the “IIA-sPLA2 protein expression and secretion” value (IIA-sPLA2) was “reduce”, the “IL-1β-stimulated NO formation” value [1] was “reduced in a dose-dependent manner” and the “protein expression of iNOS induced by IL-1β” value (iNOS) was “down-regulated”. For the same compound, the “IIA-sPLA2 mRNA expression” value (IIA-sPLA2 mRNA) was “reduce”, the “IL-1β-stimulated iNOS promoter activity” value (rat iNOS promoter) was “completely lost” and the “agonist-stimulated [3H]thymidine incorporation” value (mesangial cells) was “reduced”. The “IL-1β-stimulated sPLA2 promoter activity” value (rat IIA-sPLA2 promoter) was “completely reduced” and the “IL-1β-induced increase of phospho-p65” value (phospho-p65 (NFκB)) was “reduced”.

With CC/C=C\C/C=C\C/C=C\C/C=C\C/C=C\CCSCC(=O)C(F)(F)F [AVX002] the “IL-1β-stimulated NO formation” value [1] was “reduced in a dose-dependent manner”, the “protein expression of iNOS induced by IL-1β” value (iNOS) was “down-regulated” and the “agonist-stimulated [3H]thymidine incorporation” value (mesangial cells) was “reduced”.
